Tested on: VR1 receptor (293 cells expressing capsaicin-insensitive VR1 receptor variants)
Assay: High throughput screening of VR1 antagonists using a calcium imaging assay (Fura2, pH 5.1 stimulus);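 note: Fura2 ratiometric fluorescence read every 4 s over 3 min, response taken as peak ratio minus baseline before pre-treatment, compound pre-treatment preceding acid challenge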
Conditions: 1 uM compound; inhibition of calcium ion influx
From the text: A dual wavelength ratiometric dye, Fura2, was used as an indicator of relative levels of calcium ions in a 96 well format using a bench top scanning fluorometer with integrated fluidics and temperature control (Flex Station, Molecular Devices).
A dual wavelength ratiometric dye, Fura2, was used as an indicator of relative levels of [Ca2+] in a 96 well format using a bench top scanning fluorometer with integrated fluidics and temperature control (Flex Station, Molecular Devices).
293 cells were grown on PDL coated 96-well black-walled plates, in the presence of a DMEM medium containing 5% Penstrep, 5% Glutamax, 200 ug/mL Hygromycin, 5 μg/mL Blasticide and 10% heat inactivated FBS. Prior to assay, the cells were loaded with 5 μg/mL Fura2 in normal saline solution at 37° C. for 40 minutes. Cells were then washed with normal saline to remove the dye.
The assay consists of two stages; a pre-treatment phase followed by a treatment phase.
50 μl of a compound solution was added to the cells (Pre-treatment). Immediately following, 50 μl of the test compound in a saline solution at pH 5.1 was added. […] Changes in wavelength measurements were made throughout the course of the experiment in 4 second intervals over a period of 3 minutes. Responses were measured as peak fluorescence ratio after test compound addition minus baseline fluorescence ratio prior to pre-treatment and were calculated using SoftMaxPro softwareData were expressed as percentage inhibition calculated using Excel as follows:

Row | SMILES | % Inhibition @ 1 uM
1 | COc1cc(C(=O)Nc2nccs2)ccc1-c1ncccc1Cl [Compound 1252] | + (compound exhibited 0-25% inhibition of calcium ion influx induced by capsaicin stimulation)
2 | COc1cc(C(=O)Nc2ccc3ccccc3c2)ccc1-c1ncccc1Cl [Compound 1253] | ++++ (compound exhibited 75% or greater inhibition of calcium ion influx induced by capsaicin stimulation)
3 | COc1ccc(NC(=O)c2ccc(-c3ncccc3Cl)c(OC)c2)cc1OC [Compound 1257] | + (compound exhibited 0-25% inhibition of calcium ion influx induced by capsaicin stimulation)
4 | COc1cc(C(=O)Nc2cccc(C(=O)O)c2)ccc1-c1ncccc1Cl [Compound 1258] | + (compound exhibited 0-25% inhibition of calcium ion influx induced by capsaicin stimulation)
5 | COc1cc(C(=O)Nc2ccc(Cl)c(C(=O)O)c2)ccc1-c1ncccc1Cl [Compound 1259] | ++++ (compound exhibited 75% or greater inhibition of calcium ion influx induced by capsaicin stimulation)
6 | COc1cc(C(=O)Nc2cc(OC)c(OC)c(OC)c2)ccc1-c1ncccc1Cl [Compound 1263] | ++++ (compound exhibited 75% or greater inhibition of calcium ion influx induced by capsaicin stimulation)
7 | COc1cc(C(=O)Nc2ccc3cn[nH]c3c2)ccc1-c1ncccc1Cl [Compound 1264] | ++ (compound exhibited 25-50% inhibition of calcium ion influx induced by capsaicin stimulation)
8 | COc1cc(C(=O)Nc2ccc(C#N)c(Cl)c2)ccc1-c1ncccc1Cl [Compound 1265] | ++++ (compound exhibited 75% or greater inhibition of calcium ion influx induced by capsaicin stimulation)
9 | COc1cc(C(=O)Nc2cccc(C(F)(F)F)c2)ccc1-c1ncccc1Cl [Compound 1267] | ++ (compound exhibited 25-50% inhibition of calcium ion influx induced by capsaicin stimulation)
10 | COc1cc(C(=O)Nc2cccc(OC(F)(F)F)c2)ccc1-c1ncccc1Cl [Compound 1269] | + (compound exhibited 0-25% inhibition of calcium ion influx induced by capsaicin stimulation)
11 | COc1cc(C(=O)Nc2cccc(OC(C)C)c2)ccc1-c1ncccc1Cl [Compound 1270] | + (compound exhibited 0-25% inhibition of calcium ion influx induced by capsaicin stimulation)
12 | COc1cc(C(=O)Nc2ccc(F)c(F)c2)ccc1-c1ncccc1Cl [Compound 1271] | +++ (compound exhibited 50-75% inhibition of calcium ion influx induced by capsaicin stimulation)
13 | CCOc1ccc(NC(=O)c2ccc(-c3ncccc3Cl)c(OC)c2)cc1 [Compound 1273] | + (compound exhibited 0-25% inhibition of calcium ion influx induced by capsaicin stimulation)
14 | COc1cc(C(=O)Nc2ccc(OC)c(C(F)(F)F)c2)ccc1-c1ncccc1Cl [Compound 1275] | ++ (compound exhibited 25-50% inhibition of calcium ion influx induced by capsaicin stimulation)
15 | COc1cc(C(=O)Nc2ccc(N3CCOCC3)c(Cl)c2)ccc1-c1ncccc1Cl [Compound 1276] | + (compound exhibited 0-25% inhibition of calcium ion influx induced by capsaicin stimulation)
16 | COc1cc(C(=O)Nc2ccc(-c3cnco3)cc2)ccc1-c1ncccc1Cl [Compound 1277] | +++ (compound exhibited 50-75% inhibition of calcium ion influx induced by capsaicin stimulation)
17 | COc1cc(C(=O)Nc2ccc(Cl)cc2S(=O)(=O)O)ccc1-c1ncccc1Cl [Compound 1278] | + (compound exhibited 0-25% inhibition of calcium ion influx induced by capsaicin stimulation)
18 | CCN(CC)CCOC(=O)c1ccc(NC(=O)c2ccc(-c3ncccc3Cl)cc2)cc1 [Compound 1282] | + (compound exhibited 0-25% inhibition of calcium ion influx induced by capsaicin stimulation)
19 | CCOC(=O)c1cccc(NC(=O)c2ccc(-c3ncccc3Cl)cc2)c1 [Compound 1286] | + (compound exhibited 0-25% inhibition of calcium ion influx induced by capsaicin stimulation)
20 | COc1ccc(NC(=O)c2ccc(-c3ncccc3Cl)cc2)cc1O [Compound 1288] | + (compound exhibited 0-25% inhibition of calcium ion influx induced by capsaicin stimulation)
21 | O=C(Nc1ccc2cn[nH]c2c1)c1ccc(-c2ncccc2Cl)cc1 [Compound 1290] | ++ (compound exhibited 25-50% inhibition of calcium ion influx induced by capsaicin stimulation)
22 | CCCOc1ccc(NC(=O)c2ccc(-c3ncccc3Cl)cc2)cc1 [Compound 1291] | + (compound exhibited 0-25% inhibition of calcium ion influx induced by capsaicin stimulation)
23 | O=C(Nc1ccc(OC(F)(F)F)cc1)c1ccc(-c2ncccc2Cl)cc1 [Compound 1293] | + (compound exhibited 0-25% inhibition of calcium ion influx induced by capsaicin stimulation)
24 | O=C(Nc1cccc(OC(F)(F)F)c1)c1ccc(-c2ncccc2Cl)cc1 [Compound 1294] | + (compound exhibited 0-25% inhibition of calcium ion influx induced by capsaicin stimulation)
25 | CC(C)Oc1cccc(NC(=O)c2ccc(-c3ncccc3Cl)cc2)c1 [Compound 1295] | + (compound exhibited 0-25% inhibition of calcium ion influx induced by capsaicin stimulation)
26 | O=C(Nc1ccc(F)c(F)c1)c1ccc(-c2ncccc2Cl)cc1 [Compound 1296] | + (compound exhibited 0-25% inhibition of calcium ion influx induced by capsaicin stimulation)

Row | SMILES | % Inhibition @ 1 uM
27 | CCOc1ccc(NC(=O)c2ccc(-c3ncccc3Cl)cc2)cc1 [Compound 1298] | + (compound exhibited 0-25% inhibition of calcium ion influx induced by capsaicin stimulation)
28 | O=C(Nc1ccc(N2CCOCC2)c(Cl)c1)c1ccc(-c2ncccc2Cl)cc1 [Compound 1301] | +++ (compound exhibited 50-75% inhibition of calcium ion influx induced by capsaicin stimulation)
29 | CN1CCCc2ccc(NC(=O)c3ccc(-c4ncccc4Cl)cc3)cc21 [Compound 1304] | + (compound exhibited 0-25% inhibition of calcium ion influx induced by capsaicin stimulation)
30 | O=C(Nc1ccccc1)c1ccc(-c2ncccc2Cl)cn1 [Compound 1306] | ++++ (compound exhibited 75% or greater inhibition of calcium ion influx induced by capsaicin stimulation)
31 | O=C(Nc1ccc(F)cc1)c1ccc(-c2ncccc2Cl)cn1 [Compound 1308] | + (compound exhibited 0-25% inhibition of calcium ion influx induced by capsaicin stimulation)
32 | N#Cc1ccccc1NC(=O)c1ccc(-c2ncccc2Cl)cn1 [Compound 1309] | + (compound exhibited 0-25% inhibition of calcium ion influx induced by capsaicin stimulation)
33 | O=C(Nc1ccccc1Cl)c1ccc(-c2ncccc2Cl)cn1 [Compound 1314] | ++++ (compound exhibited 75% or greater inhibition of calcium ion influx induced by capsaicin stimulation)
34 | N#Cc1cccc(NC(=O)c2ccc(-c3ncccc3Cl)cn2)c1 [Compound 1316] | ++++ (compound exhibited 75% or greater inhibition of calcium ion influx induced by capsaicin stimulation)
35 | CCCCc1ccc(NC(=O)c2ccc(-c3ncccc3Cl)cn2)cc1 [Compound 1319] | +++ (compound exhibited 50-75% inhibition of calcium ion influx induced by capsaicin stimulation)
36 | O=C(Nc1ccc(C2CCCCC2)cc1)c1ccc(-c2ncccc2Cl)cn1 [Compound 1320] | ++++ (compound exhibited 75% or greater inhibition of calcium ion influx induced by capsaicin stimulation)
37 | O=C(Nc1ccc(C(F)(F)F)cc1)c1ccc(-c2ncccc2Cl)cn1 [Compound 1325] | + (compound exhibited 0-25% inhibition of calcium ion influx induced by capsaicin stimulation)
38 | COc1cc(NC(=O)c2ccc(-c3ncccc3Cl)cn2)cc(C(F)(F)F)c1 [Compound 1328] | + (compound exhibited 0-25% inhibition of calcium ion influx induced by capsaicin stimulation)
39 | Cc1cc(C)nc(NC(=O)c2ccc(-c3ncccc3Cl)cn2)c1 [Compound 1329] | + (compound exhibited 0-25% inhibition of calcium ion influx induced by capsaicin stimulation)
40 | O=C(Nc1ccncc1)c1ccc(-c2ncccc2Cl)cn1 [Compound 1330] | +++ (compound exhibited 50-75% inhibition of calcium ion influx induced by capsaicin stimulation)
41 | O=C(Nc1ccc(N2CCOCC2)cc1)c1ccc(-c2ncccc2Cl)cn1 [Compound 1334] | + (compound exhibited 0-25% inhibition of calcium ion influx induced by capsaicin stimulation)
42 | Cc1ccnc(NC(=O)c2ccc(-c3ncccc3Cl)cn2)c1 [Compound 1335] | + (compound exhibited 0-25% inhibition of calcium ion influx induced by capsaicin stimulation)
43 | O=C(Nc1ccncn1)c1ccc(-c2ncccc2Cl)cn1 [Compound 1336] | ++++ (compound exhibited 75% or greater inhibition of calcium ion influx induced by capsaicin stimulation)
44 | COc1ccc(NC(=O)c2ccc(-c3ncccc3Cl)cn2)cn1 [Compound 1341] | ++ (compound exhibited 25-50% inhibition of calcium ion influx induced by capsaicin stimulation)
45 | O=C(Nc1ccnc(Cl)c1)c1ccc(-c2ncccc2Cl)cn1 [Compound 1342] | + (compound exhibited 0-25% inhibition of calcium ion influx induced by capsaicin stimulation)
46 | Cc1cc(NC(=O)c2ccc(-c3ncccc3Cl)cn2)nc(C)n1 [Compound 1343] | + (compound exhibited 0-25% inhibition of calcium ion influx induced by capsaicin stimulation)
47 | O=C(Nc1ccc2ncccc2c1)c1ccc(-c2ncccc2Cl)cn1 [Compound 1344] | + (compound exhibited 0-25% inhibition of calcium ion influx induced by capsaicin stimulation)
48 | CCn1c2ccccc2c2cc(NC(=O)c3ccc(-c4ncccc4Cl)cn3)ccc21 [Compound 1345] | ++++ (compound exhibited 75% or greater inhibition of calcium ion influx induced by capsaicin stimulation)
49 | O=C(Nc1ccc2ccccc2c1)c1ccc(-c2ncccc2Cl)cn1 [Compound 1348] | ++ (compound exhibited 25-50% inhibition of calcium ion influx induced by capsaicin stimulation)
50 | O=C(Nc1ccc(OCc2ccccc2)cc1)c1ccc(-c2ncccc2Cl)cn1 [Compound 1349] | + (compound exhibited 0-25% inhibition of calcium ion influx induced by capsaicin stimulation)
51 | CCOC(=O)c1ccc(NC(=O)c2ccc(-c3ncccc3Cl)cn2)cc1 [Compound 1350] | + (compound exhibited 0-25% inhibition of calcium ion influx induced by capsaicin stimulation)

From patent publication US7338950B2, “Amide compounds as ion channel ligands and uses thereof” (Renovis, Inc., priority 2003, dated 2008)
